{
  "source": "patent US20250123297A1",
  "about": "“Supermere Nanoparticles and Methods of Isolation and Use Thereof” (Vanderbilt University, priority 2021, published 2025)",
  "key": {"MDA-MB-231 cells": {"test_system": "MDA-MB-231 cells", "test": "Inhibition of cellular supermere uptake by uptake inhibitors", "format": "cell-based, human", "conditions": "30 min pre-incubation with inhibitor, labeled supermeres 24 h, 100 nM bafilomycin A", "procedure": "(§1) For inhibitor treatment before supermere uptake, MDA-MB-231 cells were seeded at 20,000 cells per well or Hela cells at 25,000 cells per well on a 35-mm dish (P35G-0.170-14-C, MatTek Corporation) in DMEM culture media. Twenty-four hours later, cells were pre-incubated with the inhibitors in serum free DMEM media for 30 min. The following inhibitors were used: 100 nM bafilomycin A (Sigma, SML1661-. 1ML), 20 μM dynasore (Sigma, D7693-5 MG), 25 μM CK666 (Sigma, SML0006), 5 μM cytochalasin D (Sigma, C2618-200 ul). The Alexa Fluor 647-labeled supermeres (40 μg/ml) were added to the cells for 24 h in the presence of indicated inhibitors. […] Brightfield (30 ms exposure time) and fluorescence (640 Far Red, 10% laser power, 100 ms exposure time) images were taken of 10 or more fields of view, each with several cells per field. Three z-slices 1 μm apart were taken of each fluorescent field and the brightest slice was analyzed.\n(§2) Brightfield images were used to identify cell boundaries and an ROI was drawn manually around each cell in each field of view. These region of interests (ROIs) were then opened on the fluorescent image and the mean fluorescence intensity of each ROI (cell) was measured. For each field of view, a background ROI was drawn in a region with no cells, and this background value was subtracted from each cell fluorescence mean in the field of view. […]"}, "Hela cells": {"test_system": "Hela cells", "test": "Inhibition of cellular supermere uptake by uptake inhibitors", "format": "cell-based", "conditions": "30 min pre-incubation with inhibitor, labeled supermeres 24 h, 100 nM bafilomycin A", "procedure": "as §1, §2"}},
  "data": [
    {"compound": "CO/C1=C\\C(C)=C\\[C@@H](C)[C@@H](O)[C@@H](C)C/C(C)=C/C=C/[C@H](OC)[C@@H]([C@@H](C)[C@@H](O)[C@H](C)[C@@]2(O)C[C@@H](O)[C@H](C)[C@@H](C(C)C)O2)OC1=O", "note": "[bafilomycin A]", "values": [
      {"measurement": "inhibition of supermere internalization", "setting": "MDA-MB-231 cells", "result": "greatest inhibition of supermere internalization"},
      {"measurement": "inhibition of supermere internalization", "setting": "Hela cells", "result": "greatest inhibition of supermere internalization"}
    ]}
  ]
}
